In data set [1] the test system is Mycobacterium smegmatis 607. Nature of the data set: Antimicrobial potency, cylinder agar plate method, Bleomycin A2 (copper-free base) assumed as 1000 U/mg. As to conditions: Mycobacterium smegmatis 607. Type of data set: cell-based. The protocol:
1. Antimicrobial potency was assayed by a cylinder agar plate method on the basis of Bleomycin A2 (copper-free base) assumed as 1000 U/mg, using Mycobacterium smegmatis 607 as test organism.
^(1) Assayed by a cylinder-agar plate method using Mycobacterium
smegmatis 607 as test organism, the potency of bleomycin A2
(copper-free base) being assumed as 1000 unit/mg.
The resulting compound has 0.65 of Rf value of the Silica gel thin layer chromatograph (CH3 OH: 10 %-CH3 COONH4 : 10 %-NH4 OH = 10 : 9 : 1) and 0.53 of Rf value of the Avicel thin layer chromatography (n-C3 H7 OH : pyridine : CH3 COOH : H2 O = 15 : 10 : 3 : 12) which are same with those of the 3-morpholinopropylaminobleomycin. The antimicrobial activity to Mycobacterium smegmatis 607 by the cylinder-agar plate method (the standard copper-free bleomycin A2 free base 1,000 U/mg) was 605 U/mg.

Data set [2] concerns Ehrlich ascites carcinoma. Nature of the data set: Antitumor activity and toxicity in ICR-SLC mouse inoculated with Ehrlich ascites carcinoma, i.p. for ten consecutive days. In kind it is in vivo. To be noted: for Chemotherapeutic index (LD50/ED50): Tables 2 to 4; for Chemotherapeutic index (LD50/ED50) / LD50 (50 % lethal dose) / ED50 (50 % effective dose): i.p., for 10 days, 72000 min; for Prolongation effect on the survival period of ICR-SLC mouse inoculated with Ehrlich ascites carcinoma: as shown in Tables 2 and 3; for LD50 (50 % lethal dose): Behrens-Karber method; for ED50 (50 % effective dose): maximum dose level within the range of longevity ratio of 100 to 200; for Chemotherapeutic index: Table 5, ten consecutive days into peritoneal cavity, evaluated 50 days after beginning. On the procedure:
The phleomycin was administered for ten consecutive days into peritoneal cavity of a ICR-SLC mouse, into which Ehrlich ascites carcinoma had been inoculated. Fifty days after the beginning of the experiment, measurements were made for (1) the number of dead mouse owing to toxicity, (2) the number of survived mouse, (3) mean survival period in 50 days, and (4) the ratio of mean survival period to that of reference mouse multiplied by 100. The chemotherapeutic index was calculated from the values of ED50 (50 % effective dose) and LD50 (50 % lethal dose) which were obtained as given below.
ED50 value: The maximum dose level within the range of logevity ratio of 100 to 200.
LD50 value: Calculated according to Behrens-Karber method from the data of (1) and (2).
^(2) A bleomycin was administered for ten consecutive days into
peritoneal cavity of a ICR-SLC mouse, where Ehrlich ascites carcinoma had
been inoculated, and 50 days after the beginning of experiment the […]

Where [3] appears, read: phleomycins of Table 1, Bleomycin A2 (copper-free base) = 1000 U/mg.
Where [4] appears, read: 0.19 mg/kg/day for 10 days i.p.
Where [5] appears, read: 0.39 mg/kg/day for 10 days i.p.
The mark [6] stands for this setting: 0.78 mg/kg/day for 10 days i.p.
Setting [7] is: 1.56 mg/kg/day for 10 days i.p.
[8] abbreviates: 3.12 mg/kg/day for 10 days i.p.
The mark [9] stands for this setting: 6.25 mg/kg/day for 10 days i.p.
Setting [10] is: 12.5 mg/kg/day for 10 days i.p.
The mark [11] stands for this setting: 25.0 mg/kg/day for 10 days i.p.
Setting [12] is: bleomycins of Table 5, bleomycin A2 (copper-free base) = 1000 unit/mg.

Turning to 3-Morpholinopropylaminophleomycin, the Antimicrobial potency in data set [1] (setting [3]) was determined as 474 unit/mg. In addition, the “Average longevity (mean survival period in 50 days)” value (“Average longevity” for short) in data set [2] (setting [4]) worked out at 20.6; in data set [2] (setting [5]) it was 16.2; in data set [2] (setting [6]), 22.8; in data set [2] (setting [7]) it was 35.0; in data set [2] (setting [8]), 49.2; in data set [2] (setting [9]) it was 50.0. Further, the results for the “Average longevity” value in data set [2] (setting [10]) and in data set [2] (setting [11]) were 39.2 and 26.2, respectively. The “Longevity ratio (mean survival period to that of reference mouse multiplied by 100)” value (shortened to “Longevity ratio”) in data set [2] (setting [4]) was determined as 167; in data set [2] (setting [5]), 133; in data set [2] (setting [6]), 187; in data set [2] (setting [7]) it was 287; in data set [2] (setting [8]), 403; in data set [2] (setting [9]) it was 410. For the same molecule, the “Longevity ratio” value in data set [2] (setting [10]) is recorded as 321; in data set [2] (setting [11]), 215. Moreover, the “Toxicity, number dead/total number” value in data set [2] (setting [4]), in data set [2] (setting [5]), in data set [2] (setting [6]), in data set [2] (setting [7]), in data set [2] (setting [8]) and in data set [2] (setting [9]) was 0/5 throughout. The entries for the “Toxicity, number dead/total number” value in data set [2] (setting [10]) and in data set [2] (setting [11]) were 2/5 and 5/5, respectively. The “Viability (after 50 days), number survived/total number” value in data set [2] (setting [4]) is reported as 0/5; in data set [2] (setting [5]) it was 0/5; in data set [2] (setting [6]), 0/5; in data set [2] (setting [7]) it was 2/5; in data set [2] (setting [8]), 5/5; in data set [2] (setting [9]), 5/5. Moreover, the entries for the “Viability (after 50 days), number survived/total number” value in data set [2] (setting [10]) and in data set [2] (setting [11]) were 3/5 and 0/5, respectively. The “Chemotherapeutic index (LD50/ED50)” value in data set [2] stood at 19.2. In addition, the “Prolongation effect on the survival period of ICR-SLC mouse inoculated with Ehrlich ascites carcinoma” value in data set [2] is recorded as “distinct prolongation effect”. The “LD50 (50 % lethal dose)” value in data set [2] is listed as 15.0 mg/kg/day. Moreover, the “ED50 (50 % effective dose)” value in data set [2] is given as 0.78 mg/kg/day. Besides, the “Chemotherapeutic index compared with 3-morpholinopropylaminobleomycin” value in data set [2] (same terminal amine Y) is reported as “practically same order”.

For 3-N,N-Diethylaminopropylaminobleomycin, in data set [1] (setting [12]), the Antimicrobial potency stood at 1036 Unit/mg. In data set [2], this molecule came in with a Chemotherapeutic index of 34.5.

3-N,N-Dimethylaminopropylaminobleomycin gave an Antimicrobial potency in data set [1] (setting [12]) of 806 Unit/mg. The Chemotherapeutic index in data set [2] was 20.4.

“3-N-(1-Phenylethyl)aminopropylaminobleomycin” gave an Antimicrobial potency in data set [1] (setting [12]) of 5320 Unit/mg. The same molecule came in with a Chemotherapeutic index in data set [2] of 59.2.

In the case of “3-N-(3-Hydroxypropyl)aminopropylaminobleomycin”, in data set [1] (setting [12]), the Antimicrobial potency is 1021 Unit/mg. Moreover, in data set [2], the Chemotherapeutic index is given as 29.6.

Consider 3-N-Cyclohexylaminopropylaminobleomycin, for which the Antimicrobial potency in data set [1] (setting [12]) worked out at 6560 Unit/mg. In data set [2], the Chemotherapeutic index is reported as 16.3.

As to 3-Piperidinopropylaminobleomycin, in data set [1] (setting [12]), the Antimicrobial potency amounted to 1257 Unit/mg. Further, in data set [2], the Chemotherapeutic index is listed as 14.4.

3-Pyrrolidinopropylaminobleomycin registered an Antimicrobial potency in data set [1] (setting [12]) of 1066 Unit/mg. The same molecule displayed a Chemotherapeutic index in data set [2] of 19.2.

In data set [1] (setting [3]), “3-S,S-Dimethylmercaptopropylaminophleomycin” returned an Antimicrobial potency of 865 unit/mg. In addition, the “Average longevity” value in data set [2] (setting [4]) was found to be 18.0; in data set [2] (setting [5]), 21.0; in data set [2] (setting [6]) it was 29.0; in data set [2] (setting [7]) it was 36.8; in data set [2] (setting [8]), 44.0; in data set [2] (setting [9]) it was 33.8. The entries for the “Average longevity” value in data set [2] (setting [10]) and in data set [2] (setting [11]) were 13.0 and 8.6, respectively. The “Longevity ratio” value in data set [2] (setting [4]) was 123; in data set [2] (setting [5]), 144; in data set [2] (setting [6]) it was 199; in data set [2] (setting [7]) it was 252; in data set [2] (setting [8]) it was 301; in data set [2] (setting [9]) it was 232. Besides, the entries for the “Longevity ratio” value in data set [2] (setting [10]) and in data set [2] (setting [11]) were 89 and 59, respectively. Further, the “Toxicity, number dead/total number” value in data set [2] (setting [4]) is listed as 0/5; in data set [2] (setting [5]), 0/5; in data set [2] (setting [6]) it was 0/5; in data set [2] (setting [7]) it was 0/5; in data set [2] (setting [8]), 0/5; in data set [2] (setting [9]) it was 3/5. The “Toxicity, number dead/total number” value in data set [2] (setting [10]) and in data set [2] (setting [11]) was 5/5 in each case. For the same molecule, the “Viability (after 50 days), number survived/total number” value in data set [2] (setting [4]) is on record as 0/5; in data set [2] (setting [5]) it was 0/5; in data set [2] (setting [6]) it was 2/5; in data set [2] (setting [7]) it was 3/5; in data set [2] (setting [8]), 4/5; in data set [2] (setting [9]), 1/5. In addition, the “Viability (after 50 days), number survived/total number” value in data set [2] (setting [10]) and in data set [2] (setting [11]) was 0/5 each time. Moreover, in data set [2], the “Chemotherapeutic index (LD50/ED50)” value is listed as 8.5. In data set [2], the “Prolongation effect on the survival period of ICR-SLC mouse inoculated with Ehrlich ascites carcinoma” value is “distinct prolongation effect”. In data set [2], the “LD50 (50 % lethal dose)” value came out at 6.6 mg/kg/day. In addition, in data set [2], the “ED50 (50 % effective dose)” value is reported as 0.78 mg/kg/day.

In data set [1] (setting [12]), “3-[3-N-(1-Phenylethyl)aminopropylamino]propylaminobleomycin” came in with an Antimicrobial potency of 9470 Unit/mg. In data set [2], this molecule displayed a Chemotherapeutic index of 18.1.

In turn, `Cc1c(N)nc(C(CC(N)=O)NCC(N)C(N)=O)nc1C(=O)NC(C(=O)NC(C)C(O)C(C)C(=O)NC(C(=O)NCCc1nc(-c2nc(C(=O)NCCC[S+](C)C)cs2)cs1)C(C)O)C(OC1OC(CO)C(O)C(O)C1OC1OC(CO)C(O)C(OC(N)=O)C1O)c1cnc[nH]1` (stereo not drawn) [3-S,S-Dimethylmercaptopropylaminobleomycin] gave an Antimicrobial potency in data set [1] (setting [12]) of 920 Unit/mg. Further, the Chemotherapeutic index in data set [2] was found to be 12.0.

For the origin of these results see US3984390A, “Novel process for producing phleomycin group antibiotics” (Zaidan Hojin Biseibutsu Kagaku Kenkyu Kai, priority 1972, dated 1976).
